Measured values published in ChEMBL document CHEMBL5223177, “Pyrazole Ureas as Low Dose, CNS Penetrant Glucosylceramide Synthase Inhibitors for the Treatment of Parkinson's Disease” (ACS Med Chem Lett, 2023).
Values after ≈ are worked out from the molar mass of the structure shown.

Experiments:
[1] = organism: Homo sapiens; assay: Inhibition of CYP2C9 (unknown origin) relative to control
[2] = Solubility of compound at pH 2 by HPLC method; format: physicochemical; details: buffer
[3] = target: T1, mouse BCRP (ABCG2) (Mus musculus, UniProt Q7TMS5); assay: Substrate activity at mouse BCRP assessed as efflux ratio at 1 uM; format: ADME; details: not told
T1 sequence (Q7TMS5 whole entry): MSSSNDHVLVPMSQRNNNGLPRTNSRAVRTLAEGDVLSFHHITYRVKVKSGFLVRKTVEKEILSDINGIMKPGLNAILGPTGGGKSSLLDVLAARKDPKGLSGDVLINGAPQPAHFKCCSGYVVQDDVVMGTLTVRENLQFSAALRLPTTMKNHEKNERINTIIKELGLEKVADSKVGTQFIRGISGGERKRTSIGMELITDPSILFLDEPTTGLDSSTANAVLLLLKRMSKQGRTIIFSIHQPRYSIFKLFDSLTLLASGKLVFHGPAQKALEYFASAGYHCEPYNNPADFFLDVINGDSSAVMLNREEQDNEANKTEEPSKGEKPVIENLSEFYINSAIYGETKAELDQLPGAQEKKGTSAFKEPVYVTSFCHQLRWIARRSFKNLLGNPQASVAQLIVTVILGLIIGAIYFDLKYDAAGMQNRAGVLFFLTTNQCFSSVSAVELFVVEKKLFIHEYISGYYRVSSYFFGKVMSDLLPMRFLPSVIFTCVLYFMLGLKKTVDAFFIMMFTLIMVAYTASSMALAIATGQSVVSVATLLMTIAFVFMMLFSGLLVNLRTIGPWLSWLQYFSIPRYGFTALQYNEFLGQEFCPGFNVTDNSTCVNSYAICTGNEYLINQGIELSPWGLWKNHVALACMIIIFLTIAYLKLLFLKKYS

[4] = target: T2, Ceramide glucosyltransferase (Homo sapiens, UniProt Q16739); assay: Inhibition of GCS in human fibroblast; format: cell-based
T2 sequence (Q16739 whole entry): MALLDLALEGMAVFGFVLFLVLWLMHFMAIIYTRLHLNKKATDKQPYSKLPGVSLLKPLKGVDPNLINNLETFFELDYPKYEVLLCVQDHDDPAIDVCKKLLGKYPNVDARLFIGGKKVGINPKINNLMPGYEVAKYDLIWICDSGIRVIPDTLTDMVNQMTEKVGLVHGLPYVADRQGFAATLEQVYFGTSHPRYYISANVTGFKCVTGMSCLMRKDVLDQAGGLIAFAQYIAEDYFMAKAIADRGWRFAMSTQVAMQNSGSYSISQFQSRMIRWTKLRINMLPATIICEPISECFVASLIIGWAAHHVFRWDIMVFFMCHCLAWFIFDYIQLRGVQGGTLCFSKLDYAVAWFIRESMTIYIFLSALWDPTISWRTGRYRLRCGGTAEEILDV

[5] = target: Cytochrome P450 3A4 (Homo sapiens, UniProt P08684); assay: Inhibition of CYP3A4 (unknown origin); format: ADME
[6] = Unbound volume of distribution at steady state in dog; format: ADME, Canis lupus familiaris; details: in vivo
[7] = Clearance in rat; format: ADME; details: in vivo
[8] = Bioavailability in dog; format: ADME, organism-based, Canis lupus familiaris; details: in vivo
[9] = target: Neuronal acetylcholine receptor subunit alpha-3 (Homo sapiens, UniProt P30926+P32297); assay: Inhibition of human alpha3beta4 nAChR
[10] = Clearance in dog; format: ADME, Canis lupus familiaris; details: in vivo
[11] = target: Cytochrome P450 2C9 (Homo sapiens, UniProt P11712); assay: Inhibition of CYP2C9 (unknown origin); format: ADME
[12] = Bioavailability in rat; format: ADME, organism-based; details: in vivo
[13] = target: Voltage-gated inwardly rectifying potassium channel KCNH2 (Homo sapiens, UniProt Q12809); assay: Inhibition of human ERG; format: toxicity
[14] = Intrinsic clearance in rat; format: ADME
[15] = target: T3, Nuclear receptor subfamily 1 group I member 2 (Homo sapiens, UniProt O75469); assay: Activation of PXR (unknown origin)
T3 sequence (O75469 whole entry): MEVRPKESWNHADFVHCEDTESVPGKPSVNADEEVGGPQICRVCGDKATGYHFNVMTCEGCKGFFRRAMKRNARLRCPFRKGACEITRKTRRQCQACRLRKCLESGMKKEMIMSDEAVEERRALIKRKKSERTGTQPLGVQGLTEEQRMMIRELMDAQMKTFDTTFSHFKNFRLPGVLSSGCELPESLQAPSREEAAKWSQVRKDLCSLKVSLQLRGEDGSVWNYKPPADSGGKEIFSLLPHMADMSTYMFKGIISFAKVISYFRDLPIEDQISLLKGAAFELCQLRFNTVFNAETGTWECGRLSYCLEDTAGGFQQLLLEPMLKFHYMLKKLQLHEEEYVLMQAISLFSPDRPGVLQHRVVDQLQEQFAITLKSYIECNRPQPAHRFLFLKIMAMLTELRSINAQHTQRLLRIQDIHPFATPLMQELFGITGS

[16] = Unbound fraction in dog plasma; format: ADME, cell-free, Canis lupus familiaris
[17] = Intrinsic clearance in rat at 5 to 10 mg/kg, po or 0.05 to 2 mg/kg, iv; format: ADME, organism-based; details: in vivo, dose 5-10 mg/kg
[18] = Lipophilicity, logD of compound by HPLC method; format: physicochemical
[19] = Half life in rat; format: ADME; details: in vivo
[20] = target: T1, mouse BCRP (ABCG2); assay: Substrate activity at mouse BCRP assessed as apparent permeability at 1 uM; format: ADME; details: not told
[21] = tested on: rat P-gp; assay: Substrate activity at rat P-gp assessed as efflux ratio at 1 uM; format: ADME; details: not told
[22] = target: Cytochrome P450 2D6 (Homo sapiens, UniProt P10635); assay: Inhibition of CYP2D6 (unknown origin); format: ADME
[23] = Bioavailability in rat at 5 to 10 mg/kg, po or 0.05 to 2 mg/kg, iv; format: ADME, organism-based; details: in vivo, dose 5-10 mg/kg
[24] = Mean residence time in rat at 5 to 10 mg/kg, po or 0.05 to 2 mg/kg, iv; format: ADME, organism-based; details: in vivo, dose 5-10 mg/kg
[25] = Half life in dog; format: ADME, Canis lupus familiaris; details: in vivo
[26] = Unbound fraction in rat plasma; format: ADME, cell-free
[27] = Unbound brain-to-plasma concentration ratio in rat at 5 mg/kg, po after 2 hrs; format: ADME, organism-based; details: read-out: K(p,uu,brain)
[28] = Solubility of compound at pH 7 by HPLC method; format: physicochemical; details: buffer
[29] = Intrinsic clearance in dog; format: ADME, Canis lupus familiaris

Chain of Cytochrome P450 3A4 (P08684 whole entry): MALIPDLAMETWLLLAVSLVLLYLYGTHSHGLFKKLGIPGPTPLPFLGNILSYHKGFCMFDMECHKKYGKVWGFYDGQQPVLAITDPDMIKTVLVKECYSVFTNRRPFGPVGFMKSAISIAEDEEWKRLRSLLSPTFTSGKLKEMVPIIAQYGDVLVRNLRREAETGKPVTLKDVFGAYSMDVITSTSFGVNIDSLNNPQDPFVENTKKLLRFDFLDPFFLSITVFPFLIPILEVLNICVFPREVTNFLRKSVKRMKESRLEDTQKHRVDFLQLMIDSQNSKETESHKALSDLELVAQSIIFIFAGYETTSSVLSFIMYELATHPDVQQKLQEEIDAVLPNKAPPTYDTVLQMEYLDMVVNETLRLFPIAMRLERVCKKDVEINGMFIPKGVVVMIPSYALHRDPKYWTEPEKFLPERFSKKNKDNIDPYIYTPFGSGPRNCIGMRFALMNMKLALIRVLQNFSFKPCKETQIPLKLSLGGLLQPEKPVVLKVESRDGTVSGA
Chain of Neuronal acetylcholine receptor subunit alpha-3 (P32297 whole entry, one chain of several): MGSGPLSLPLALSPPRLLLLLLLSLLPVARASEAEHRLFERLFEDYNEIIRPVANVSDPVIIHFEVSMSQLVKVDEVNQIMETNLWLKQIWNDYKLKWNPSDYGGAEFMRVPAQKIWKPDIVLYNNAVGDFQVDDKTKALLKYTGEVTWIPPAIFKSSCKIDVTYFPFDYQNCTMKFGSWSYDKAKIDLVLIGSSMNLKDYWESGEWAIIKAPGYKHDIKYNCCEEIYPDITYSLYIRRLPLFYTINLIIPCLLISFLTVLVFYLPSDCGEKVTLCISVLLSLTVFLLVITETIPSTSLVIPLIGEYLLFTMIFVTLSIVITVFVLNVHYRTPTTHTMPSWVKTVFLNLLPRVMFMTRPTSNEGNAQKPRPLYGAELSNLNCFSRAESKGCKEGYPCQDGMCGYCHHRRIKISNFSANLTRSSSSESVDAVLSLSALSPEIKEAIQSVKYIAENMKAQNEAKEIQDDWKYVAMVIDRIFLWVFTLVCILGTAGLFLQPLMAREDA
Chain of Cytochrome P450 2C9 (P11712 whole entry): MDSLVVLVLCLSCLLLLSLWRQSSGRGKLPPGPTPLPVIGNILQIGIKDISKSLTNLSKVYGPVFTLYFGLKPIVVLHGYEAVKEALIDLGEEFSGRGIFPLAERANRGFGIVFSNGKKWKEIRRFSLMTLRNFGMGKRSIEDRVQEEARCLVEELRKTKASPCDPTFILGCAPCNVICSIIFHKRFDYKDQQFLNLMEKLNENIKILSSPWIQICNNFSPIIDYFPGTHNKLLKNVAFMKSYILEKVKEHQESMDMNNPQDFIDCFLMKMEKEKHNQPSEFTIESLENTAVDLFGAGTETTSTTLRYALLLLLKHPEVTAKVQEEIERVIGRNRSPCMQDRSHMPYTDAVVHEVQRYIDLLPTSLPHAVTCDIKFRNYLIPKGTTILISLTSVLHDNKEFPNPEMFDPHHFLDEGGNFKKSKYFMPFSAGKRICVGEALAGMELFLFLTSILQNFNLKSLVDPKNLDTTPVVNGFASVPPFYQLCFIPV
Chain of Cytochrome P450 2D6 (P10635 whole entry): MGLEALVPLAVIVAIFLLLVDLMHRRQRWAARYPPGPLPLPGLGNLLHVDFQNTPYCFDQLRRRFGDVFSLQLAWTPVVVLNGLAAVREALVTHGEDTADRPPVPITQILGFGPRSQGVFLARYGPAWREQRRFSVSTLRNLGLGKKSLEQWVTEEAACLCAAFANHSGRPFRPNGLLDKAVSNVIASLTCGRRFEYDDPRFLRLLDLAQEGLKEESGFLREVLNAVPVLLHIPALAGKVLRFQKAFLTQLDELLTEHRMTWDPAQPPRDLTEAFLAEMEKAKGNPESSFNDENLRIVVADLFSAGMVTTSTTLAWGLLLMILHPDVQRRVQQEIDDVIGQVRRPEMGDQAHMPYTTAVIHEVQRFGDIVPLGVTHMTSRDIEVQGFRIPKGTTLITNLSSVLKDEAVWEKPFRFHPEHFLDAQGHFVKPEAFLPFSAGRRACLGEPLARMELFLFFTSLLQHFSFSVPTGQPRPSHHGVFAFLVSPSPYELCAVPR
Chain of Voltage-gated inwardly rectifying potassium channel KCNH2 (Q12809 whole entry): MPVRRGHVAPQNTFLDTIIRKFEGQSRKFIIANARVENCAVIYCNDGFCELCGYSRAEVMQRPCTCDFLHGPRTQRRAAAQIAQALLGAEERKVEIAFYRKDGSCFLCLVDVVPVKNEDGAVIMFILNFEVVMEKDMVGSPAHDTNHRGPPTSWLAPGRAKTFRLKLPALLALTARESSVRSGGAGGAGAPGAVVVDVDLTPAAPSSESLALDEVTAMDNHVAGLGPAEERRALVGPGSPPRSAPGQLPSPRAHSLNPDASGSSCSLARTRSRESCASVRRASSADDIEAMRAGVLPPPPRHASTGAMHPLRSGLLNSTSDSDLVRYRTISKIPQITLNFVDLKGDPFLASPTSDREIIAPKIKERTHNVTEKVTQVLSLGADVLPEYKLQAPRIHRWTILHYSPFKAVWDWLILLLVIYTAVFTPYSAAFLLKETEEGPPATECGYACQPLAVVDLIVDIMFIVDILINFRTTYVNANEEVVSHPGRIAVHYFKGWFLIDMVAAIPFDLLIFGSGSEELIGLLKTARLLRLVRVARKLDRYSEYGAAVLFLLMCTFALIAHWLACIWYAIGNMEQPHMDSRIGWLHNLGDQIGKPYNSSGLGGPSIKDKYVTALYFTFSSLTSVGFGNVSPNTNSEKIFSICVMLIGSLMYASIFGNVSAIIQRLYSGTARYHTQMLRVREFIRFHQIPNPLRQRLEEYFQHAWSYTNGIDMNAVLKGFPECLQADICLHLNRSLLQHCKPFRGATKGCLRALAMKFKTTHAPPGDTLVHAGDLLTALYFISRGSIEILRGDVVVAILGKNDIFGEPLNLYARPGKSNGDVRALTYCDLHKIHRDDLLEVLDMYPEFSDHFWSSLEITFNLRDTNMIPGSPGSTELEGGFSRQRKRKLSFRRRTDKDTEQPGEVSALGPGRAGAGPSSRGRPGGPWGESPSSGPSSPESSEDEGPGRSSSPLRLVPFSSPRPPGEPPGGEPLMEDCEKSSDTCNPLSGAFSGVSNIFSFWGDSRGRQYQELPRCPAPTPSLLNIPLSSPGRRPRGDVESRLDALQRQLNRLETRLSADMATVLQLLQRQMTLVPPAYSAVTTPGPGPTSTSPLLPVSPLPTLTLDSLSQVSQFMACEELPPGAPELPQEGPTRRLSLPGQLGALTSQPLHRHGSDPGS

Row | Compound | Emax [1] | solubility [2] | efflux ratio at 1 µM [3] | IC50 [4] | IC50 [5] | fVdss [6] | clearance [7] | bioavailability [8] | IC50 [9] | clearance [10] | IC50 [11] | bioavailability [12] | IC50 [13] | CLint scaled [14] | EC50 [15] | fraction unbound [16] | CL [17] | logD [18] | half-life [19] | Papp at 1 µM [20] | also measured
1 | Cl.O=C(N1CCN2CCC1CC2)n1nc(-n2cc(C(F)(F)F)cn2)c2c1COCC2 | 26% | 174 µM | 1.3 | 0.032 µM | > 50 µM | 49 L/kg | 6.1 mL/min/kg | 48% | 2.2 µM | 12 mL/min/kg | > 50 µM | 95% | 4.1 µM | 55 mL/min/kg | > 30 µM | 0.27 | 55 mL/min/kg | 2.5 | 3.4 h | 31 ×10⁻⁶ cm/s | efflux ratio at 1 µM [21]: 4.6; IC50 [22]: > 50 µM; bioavailability [23]: 95%; MRT [24]: 5.3 h; half-life [25]: 8.2 h; fraction unbound [26]: 0.08; Kp uu at 2 h [27]: 1.3; solubility [28]: 168 µM; CLint scaled [29]: 75 mL/min/kg
2 | O=C(N1CCN2CCC1CC2)n1nc(-c2ccc(F)cc2)c2c1COCC2 | 17% | 167 µM (≈ 61.9 µg/mL) | 1.4 | 0.034 µM | > 50 µM | 21 L/kg | 8.5 mL/min/kg | 21% | 2.2 µM | 30 mL/min/kg | > 50 µM | 73% | 2 µM | 90 mL/min/kg | > 30 µM | 0.3 | 90 mL/min/kg | 2.2 | 2.8 h | 31 ×10⁻⁶ cm/s | efflux ratio at 1 µM [21]: 3.4; IC50 [22]: > 50 µM; bioavailability [23]: 73%; MRT [24]: 3.5 h; half-life [25]: 2.4 h; fraction unbound [26]: 0.11; Kp uu at 2 h [27]: 0.4; solubility [28]: 170 µM (≈ 63 µg/mL); CLint scaled [29]: 6870 mL/min/kg
